Measurements taken from patent publication US20050037975A1, “Method for treatment of glutamate related disorders” (priority 1997, published 2005).
Values joined by “and” are separate entries in the source; they are usually repeats but may differ in a detail not shown here. Equal values may be shown once. Marks after values point to notes of the source that are not given here.

Key:
[1] = target: T1, mouse liver low Km ALDH (Mus musculus, UniProt P47738); assay: In vivo inhibition of mouse liver aldehyde dehydrogenase
T1 construct: Liver aldehyde dehydrogenase was extracted and assayed as previously described; from tissue; host or cells: liver of treated mice
T1 sequence (P47738 20-519): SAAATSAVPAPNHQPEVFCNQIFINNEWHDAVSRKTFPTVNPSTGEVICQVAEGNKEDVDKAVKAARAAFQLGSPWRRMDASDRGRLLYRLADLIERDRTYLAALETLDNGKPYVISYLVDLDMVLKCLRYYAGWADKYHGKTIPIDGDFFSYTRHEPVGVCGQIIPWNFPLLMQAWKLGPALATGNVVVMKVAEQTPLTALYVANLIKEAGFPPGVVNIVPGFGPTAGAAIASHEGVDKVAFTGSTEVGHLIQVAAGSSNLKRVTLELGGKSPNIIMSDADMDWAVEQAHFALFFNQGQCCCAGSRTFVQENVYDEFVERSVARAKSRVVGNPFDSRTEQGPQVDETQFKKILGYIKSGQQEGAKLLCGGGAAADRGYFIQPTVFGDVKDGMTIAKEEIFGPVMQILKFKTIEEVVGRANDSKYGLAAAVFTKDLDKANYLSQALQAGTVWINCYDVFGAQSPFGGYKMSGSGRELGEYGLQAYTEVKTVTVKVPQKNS
Protocol: Reagents—DETC-MeSO was synthesized by the method of Hart and Faiman (B. W. Hart et al., Biochem. Pharmacol.), 43, 403-406 (1992). Carbamoylated glutathione, S-(N,N-diethylcarbamoyl)glutathione (DETC-GS), was prepared essentially as described by Jin et al. (L. Jin, supra). The structures and purity of DETC-MeSO and DETC-GS were confirmed by 300 MHz NMR and FAB-tandem mass spectrometry. A QE300 NMR spectrometer (General Electric, Fremont, Calif.) and Autospec-Q Tandem Hybrid mass spectrometer (Fiscons/VG Analytical Limited, Manchester, England) were employed for these analyses. Liver aldehyde dehydrogenase was extracted and assayed as previously described (B. W. Hart et al., supra). MetSOX monosodium L-glutamate, glycine, glutathione, and NMDA were purchased from Sigma Chemical Company (St. Louis, Mo.). L-[3-^3H]Glutamate (46 Ci/mmol) was obtained from Amerisham Life Science (Buckinghamshire, England).

[2] = tested on: brain glutamate receptors (synaptic membranes); assay: [3H]glutamate binding to mouse brain synaptic membranes in vitro
Protocol: Binding Studies—Synaptic membranes (100 μg protein) were isolated (Y. H. Lee et al., J. Neurosci. Res. 40, 797-806 (1995)) form whole brain homogenate of male Swiss Webster mice and were incubated in 0.1 mM L-glutamate for 30 minutes at 25° C. After addition of 50 nM of [^3H]glutamate, incubation was continued for an additional 45 minutes. Reactions were terminated by centrifugation at 4° C. to separate membrane-bound from free radioactivity. […] The rate (k) and maximum percent blockage of glutamate binding (M) by DETC-MeSO (1) during the incubation time (t) was determined by fitting the equation [% inhibition]=M(1−e^−kh) to these day by use of the program Grafit (Erithicus Software Ltd.). This equation was derived for first-order inactivation by a group specific reagent that gives a partial effect. If “A” is the percent of binding activity that remains after extensive exposure (t=of the receptor to excess DETC-MeSO, then M=100−A)e^−kh+A; substituting (100−M) for “A” and [100−% inhibition] for “a” in this equation gives the one employed for purposes of data analyses. […] A second equation was employed in the analysis of binding data that defines partial, irreversible inactivation of two distinct groups of receptors [% inhibition]=M1(1−e^−k1^IT)+M2(1−e^−k1^IT), where M1 and M2 are the maximum amount of inhibition obtained for complete modification of each receptor population and k1 and k2 are the rate constants for these modifications, respectively.
Six determinations of the effect of DETC-MeSO were made at each concentration tested (1, 5, 10, 50, 100, 200, and 1000 μM) and the average value is shown with error bars for one standard deviation.

[3] = tested on: MetSOX-induced seizures; assay: MetSOX-induced seizures in rats; format: in vivo
Protocol: (§1) Animals—Male Swiss Webster mice (20-30 g) or male Sprague-Dawley rats (250-300 g) were used. All that employed animals were conducted in strict compliance with the NIH guidelines on animal use and institutional regulations concerning animal experimentation. Animals were exposed to hyperbaric oxygen in a specify designed press chamber as previously described (M. D. Faiman et al., Biochem. Pharmacol., 20, 3049-3067 (1971); M. D. Faiman et al. Aerosp. Med.,45, 29032.(1974)). The time to first clonic-tonic seizure after brining animals to a final pressure of five atmospheres of 100% oxygen or after intraperitoneal injection of convulsants was noted by. criteria outlined previously (M. D. Faiman et al. (1971), supra M. D. Faiman et al. (1974), supra). Unless otherwise specified, the ability of DETC-MeSO to prevent seizures was tested by intraperitoneal injection of 5.2 mg/kg of DETC-MeSO 1-2 hours prior to bringing the animal to a final pressure of 5 atmospheres of 100% oxygen or intraperitoneal injection of N-methyl-D-asparate (NMA) (125 mg/kg) r L-methionine sulfoximine (MetSOX) (250 mg/kg). Evaluation of the statistics for whole animal experiments or for changes in brain glutamate binding after administration of DETC-MeSO was conducted by use of the program GraphPAD InStat from Graph PAD Software (San Diego, Calif.).

[4] = tested on: oxygen-induced seizures (5 ATA O2); assay: Hyperbaric oxygen-induced seizures in mice; format: in vivo
Protocol: as §1

[5] = double exponential fit, nominal values

CCN(CC)C(=O)[S+](C)[O-] (stereo not drawn) [DETC-MeSO, S-Methyl-N,N-Diethylthiolcarbamate Sulfoxide]
inactivation of ALDH ([1]; 5.2 mg/kg i.p. in mice, in 1 hour): 80% | effective concentration at its site of action in vivo ([1]; 5.2 mg/kg i.p. in mice, worked out from inactivation rate): about 11 μM | inhibition at 2.6 mg/kg ([1]; mouse, ip, 2.6 mg/kg i.p., read-out: inhibition of mouse liver enzyme (ALDH)): 84% | inhibition at 30 µmol/kg ([1]; mouse, 30 μmol/kg intravenous, mice): 44.9 ± 1% | inhibition of glutamate binding ([2]; 0.1 mM, absence of glycine (FIG. 2)): 53% | irreversible blockage of glutamate binding ([2]; 0.1 mM, in the presence of glycine (0.1 mM)): 48±3% | M1, maximum inhibition of first receptor population [2, 5]: 15% | M2, maximum inhibition of second receptor population [2, 5]: 43% | k1, rate constant of first receptor population [2, 5]: 900 M⁻¹ s⁻¹ and 901 M⁻¹ s⁻¹ | k2, rate constant of second receptor population [2, 5]: 8 M⁻¹ s⁻¹ | effect on glutamate binding to synaptic membrane preparations ([2]; in vitro, without glycine): time-dependent, partial, and irreversible loss of their ability to bind glutamate | rate (k) of blockage of glutamate binding ([2]; single exponential fit): 25±10 M^−s^−1 | maximum percent blockage of glutamate binding (M) ([2]; single exponential fit, 1-1000 μM): 58±7% | effect on time free of MetSOX seizures [3]: more than doubled | number of animals that exhibited the effect/total number of animals in the group ([3]; MetSOX 250 mg/kg): (4/4) | mean time to seizure ([3]; MetSOX 250 mg/kg, 5.2 mg/kg i.p. 1-2 hours prior, ± standard error): 318 ± 60 min | effect on oxygen-induced seizures ([4]; 5.2 mg/kg i.p. 2 hours before 5 atmospheres of 100% oxygen, mice): prevented the seizures | number of animals that exhibited the effect/total number of animals in the group ([4]; 5 ATA 100% O2, mice): (0/5)^a | mean time to seizure ([4]; 5 ATA 100% O2, mice, 5.2 mg/kg i.p. prior, observation one hour): >60^a min
